The record followed here is PubChem BioAssay AID1508610 (The Scripps Research Institute Molecular Screening Center, 2020).

What is called EC50 is the midpoint of the concentration-response curve.

This experiment addresses G-protein coupled receptor 151 (Homo sapiens) (UniProt Q8TDV0). Kind of experiment: GPR151 activator potency, dose response, cell-based (AID 1508610). The following applies: cell-based GPR151 activation reporter.

Calls of active or inactive are those of the source. The rule behind the calls is not given here. Where only a bound is given, the exact number is not on record here.

Sequence of G-protein coupled receptor 151 (Homo sapiens) (Q8TDV0 whole entry, looked up): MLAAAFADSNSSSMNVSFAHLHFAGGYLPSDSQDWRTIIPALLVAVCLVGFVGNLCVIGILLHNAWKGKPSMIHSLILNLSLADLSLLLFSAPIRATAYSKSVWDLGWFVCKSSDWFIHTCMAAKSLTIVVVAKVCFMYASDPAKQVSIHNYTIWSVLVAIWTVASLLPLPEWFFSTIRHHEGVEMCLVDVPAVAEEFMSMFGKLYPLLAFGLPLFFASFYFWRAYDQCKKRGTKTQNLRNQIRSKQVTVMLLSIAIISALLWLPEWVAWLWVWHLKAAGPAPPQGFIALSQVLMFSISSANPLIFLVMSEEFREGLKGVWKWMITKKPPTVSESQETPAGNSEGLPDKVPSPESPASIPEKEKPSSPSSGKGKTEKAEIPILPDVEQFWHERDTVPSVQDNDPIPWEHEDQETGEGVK

Take `COc1ccc(-c2ccc(/C=N/N3C(=O)C4C5C=CC(C6CC56)C4C3=O)o2)c([N+](=O)[O-])c1` (stereo not drawn): the EC50 was > 28 µM (inactive).

On to `Cc1cccc(-c2cnc(C)nc2C2CCCN(C(=O)CN(C)C)C2)c1` (stereo not drawn), for which the EC50 is > 28 µM (inactive).

Turning to `CCN(CC)S(=O)(=O)c1ccc(-c2csc(=Nc3ccccc3OC)n2CC)cc1`, the EC50 is > 17.3 µM (inactive).

With `CCOC(=O)N1CCN(C(=S)Nc2ccc(C)cc2)CC1`, the EC50 is > 28 µM (inactive).

As to `O=C(Nc1nc(-c2cc3ccccc3o2)cs1)c1cc2ccccc2oc1=O`, the EC50 was > 24.7 µM (inactive).

For the compound `CC(C)(C)OC(=O)NNC(=O)/C=C/c1cc(Br)ccc1F`, the EC50 is > 28.1 µM (inactive).

As for `O=C(O)CCn1cc(C=C2C(=O)NC(=O)NC2=O)c(-c2ccc(Br)cc2)n1`, the EC50 was > 28 µM (inactive).

With `COc1ccc(CCNC(=O)c2sc3nc(C)nc(N4CCCCC4)c3c2C)cc1OC`, the EC50 was > 27.6 µM (inactive).

Regarding `CCCCCCOc1ccc(C(=O)O)cc1OC`, the EC50 is > 31.1 µM (inactive).

For `CCCCCNC(=O)c1c(O)c2c([nH]c1=O)CCCC2`, the EC50 is > 34.1 µM (inactive).

In the case of `COc1ccc(-c2nc(C(=O)N3CCN(C)CC3)sc2-c2ccc(OC)cc2)cc1`, the EC50 is > 11.2 µM (inactive).

With `CCOc1cc(NC(=O)C2CCCO2)c(OCC)cc1NC(C)=O` (stereo not drawn), the EC50 was > 9.34 µM (inactive).

`CCN(CC)C(=S)SCCC(=O)NC(=O)Nc1ccc(F)cc1`: the EC50 is > 28 µM (inactive).

As to `COc1ccccc1C1c2c(oc3ccc(C)cc3c2=O)C(=O)N1CCN1CCOCC1` (stereo not drawn), the half-maximal effective concentration (EC50) is 0.00152 µM.

On to `Cc1ccc2cc(CN(CC3CCCO3)C(=O)C3CCC3)c3nnnn3c2c1` (stereo not drawn), for which the EC50 is > 28 µM (inactive).

For `Cc1nc2ccccc2n1CC(=O)N1CCc2c(nc(N3CCCC3)[nH]c2=O)C1`, the EC50 is > 28 µM (inactive).

Consider `Cc1ccc(-c2csc3nnc(SCC(=O)NC(N)=O)n23)cc1`, for which the EC50 is > 29 µM (inactive).

As for `Cc1ccc(C(=O)NN=C2CCC(C)CC2)cc1` (stereo not drawn), the EC50 was > 28 µM (inactive).

For the compound `O=C(Nc1ncc([N+](=O)[O-])s1)c1cccnc1`, the EC50 was > 31.4 µM (inactive).

For `CC(C)N1CCN(Cc2ccc(OC3CCCC3)cc2)CC1CCO` (stereo not drawn), the EC50 is 0.00143 µM.

For `COc1cccc(NC(=O)c2oc3ccc4c(c3c2C)C(=O)CC(C)(C)O4)c1`, the EC50 was > 28 µM (inactive).

On to `O=C(O)C1CCCN(c2nn3cc(-c4ccc(F)cc4)nc3s2)C1` (stereo not drawn), for which the EC50 is > 28 µM (inactive).

With `CSc1cccc(CN2CCN(Cc3ccccc3F)C(CCO)C2)c1` (stereo not drawn), the EC50 is > 28 µM (inactive).

With `COc1cccc2oc(-c3ccccc3)cc(=O)c12`, the EC50 is > 28 µM (inactive).

`CCc1ccc2c(c1)/C(=C/C(=O)c1cccs1)C(=O)N2`: the EC50 is > 28 µM (inactive).

For `COc1ccc(-c2ccc(C(=O)Nc3ccc(NC(C)=O)cc3)s2)cc1`, the EC50 is > 26.6 µM (inactive).

Take `CC(C)CCN1C(=O)C(C)(C)COc2cc(NC(=O)c3ccc4c(c3)OCO4)ccc21`: the EC50 was > 28 µM (inactive).

In the case of `COc1ccc(CNC(=O)CCCn2cccc2)cc1`, the EC50 is > 28 µM (inactive).

Consider `COc1cc(C2Nc3ccccc3NC3=C2C(=O)CC(c2ccc4c(c2)OCO4)C3)ccc1OC(C)=O` (stereo not drawn), for which the EC50 was > 23.3 µM (inactive).

For `C[C@H]1NC(=O)[C@H]2CN(C(=O)NCc3ccccc3)CCN2C1=O`, the EC50 is > 28 µM (inactive).

For the compound `O=C1CCCN1CCn1cnc2c(NCCOc3ccccc3)nc(N3CCc4ccccc4C3)nc21`, the EC50 was > 27.9 µM (inactive).

Consider `C/C(=N\NC(=O)Cn1nnc(-c2ccccc2)n1)c1nonc1C`, for which the EC50 is > 28 µM (inactive).

Take `CCOc1ccccc1NC(=O)N1CCC2(CC1)OCCO2`: the EC50 was > 28 µM (inactive).

With `Cc1ccc2nc(NC(=O)C34CC5CC(C3)CC(n3cnc([N+](=O)[O-])n3)(C5)C4)sc2c1`, the EC50 was > 28 µM (inactive).

`COc1ccc(-c2nnc3sc(NC(=O)C(C)C)nn23)cc1OC`: the EC50 was > 28 µM (inactive).

In the case of `CC(C)N(CCNc1nc(N2CCC(N3CCOCC3)CC2)nc2c1ncn2C1CCCCC1)C(C)C`, the EC50 is > 29.5 µM (inactive).

Turning to `COc1ccc(-c2ccc(C(=O)NCCO)s2)cc1`, the EC50 was > 27.9 µM (inactive).

As for `O=C(Nc1ccc(Br)cc1)c1ccc(Br)c(S(=O)(=O)N2CCCCC2)c1`, the EC50 is > 20.9 µM (inactive).

Consider `Cc1cccc(-n2ncc3c(Nc4ccc(F)cc4F)ncnc32)c1`, for which the EC50 was > 26.9 µM (inactive).

For the compound `Cc1cc(N2CCCCC2)nc2ccc(NC(=O)c3cccc([N+](=O)[O-])c3)cc12`, the EC50 was > 29.2 µM (inactive).

In the case of `CC(=O)Nc1ccc(Nc2ccnc(N3CCc4ccccc4C3)n2)cc1`, the EC50 result is “inactive”.

As for `N#Cc1ccsc1NC(=O)/C=C/c1ccccc1`, the EC50 is > 28.6 µM (inactive).

As to `O=C(O)c1cccc(COc2ccc(CO)cc2Br)c1`, the EC50 was > 28 µM (inactive).

With `Cc1ccc2nc(-c3ccccc3)[nH]c2c1`, the EC50 was > 38.4 µM (inactive).

`CCN1/C(=C/c2ccc3cc(C)ccc3[n+]2CC)Sc2ccc(-c3ccccc3)cc21`: the EC50 entry was “inactive”.

On to `COCCNC(=O)/C(C#N)=C/C=C/c1ccccc1`, for which the EC50 was > 30.6 µM (inactive).

As for `CCOc1ccc(-c2csc(/C(C#N)=C/c3ccccc3OCC)n2)cc1`, the EC50 is > 25.5 µM (inactive).

On to `O=C1CCCCN1c1cccc(NS(=O)(=O)c2cc(F)ccc2F)c1`, for which the EC50 is > 28 µM (inactive).

Take `Nc1ncnc2c1ccn2[C@@H]1O[C@H](CO)[C@@H](O)[C@H]1O`: the EC50 was 3.11 µM.

In the case of `CC1CCCCN1Cc1nc2c(c(=O)n(C)c(=O)n2C)n1CC(N)=O` (stereo not drawn), the EC50 was > 28 µM (inactive).

On to `COc1cccc(-c2nc(-c3ccccn3)no2)c1`, for which the EC50 is > 37.5 µM (inactive).

For the compound `O=C(c1ccc(CNS(=O)(=O)c2ccc(Cl)cc2)cc1)N1CCCC1`, the EC50 was > 31.6 µM (inactive).

Turning to `COc1ccc(-c2nc(-c3ccccn3)no2)cc1`, the EC50 was > 35.9 µM (inactive).

Regarding `CSc1ccc(/C=N/NC(=O)C[n+]2ccccc2)cc1`, the EC50 is > 28 µM (inactive).

`COc1ccc(C2C=C(c3ccc(Cl)cc3)Nc3nc(CCCO)nn32)cc1` (stereo not drawn): the EC50 result is “inactive”.

As for `CC(C)c1ccc(Cn2ccc3c4c(N)nc(NC5CC5)nc4ccc32)cc1`, the EC50 is 3.86 µM.

Take `Cc1ccc(-c2nnc3sc(NC(=O)CC(C)C)nn23)cc1`: the EC50 was > 28 µM (inactive).

As to `Cc1n[nH]c(C)c1S(=O)(=O)NCc1ccc(F)cc1`, the EC50 was > 28 µM (inactive).

On to `COc1ccccc1N(CC(=O)Nc1ccccc1C(=O)NCC(C)C)S(C)(=O)=O`, for which the EC50 is > 28 µM (inactive).

Regarding `c1cncc(-c2noc(C34CC5CC(CC(C5)C3)C4)n2)c1`, the EC50 was > 26.4 µM (inactive).

As to `CCOc1ccc(C(=O)N2CCC(c3ncncc3-c3ccncc3)CC2)o1`, the EC50 was > 28 µM (inactive).

Take `COc1ccc(N2CCN(C3CC(=O)NC3=O)CC2)cc1` (stereo not drawn): the EC50 is > 28 µM (inactive).

As for `COc1cc(Br)ccc1OCC(=O)N/N=C/c1ccc([N+](=O)[O-])cc1`, the EC50 was > 28 µM (inactive).
